Reference: patent US4649160A, “Substituted phenoxy-aminopropanols” (Hoffmann-La Roche Inc., priority 1980, dated 1987)
Structures can show the parent of a compound that is named as a salt. Where two headings read alike, the source gives them in different places.

What was measured:
[1] = biological target: T1, β2-adrenoceptors (Rattus norvegicus, UniProt P10608); assay: 50% reduction in isoprenaline-induced depressor responses in rats (β-blocking activity, blood pressure); type: in vivo; details: iv, read-out: ED50 (BP)
T1 construct: measured in rats by determining the dosage in μg/kg i.v. of substance being tested; from tissue; host or cells: living rat (in vivo, i.v. dosing); vascular depressor response to isoprenaline

[2] = biological target: T2, β1-adrenoceptors (Rattus norvegicus, UniProt P18090); assay: 50% reduction in isoprenaline-induced tachycardia in rats (β-blocking activity, heart rate); type: in vivo; details: iv, read-out: ED50 (HR)
T2 construct: measured in rats by determining the dosage in μg/kg i.v. of substance being tested; from tissue; host or cells: living rat (in vivo, i.v. dosing); heart rate response to isoprenaline

[3] = rats, i.v., dosage for 50% reduction in isoprenaline-induced depressor responses
[4] = rats, i.v., dosage for 50% reduction in isoprenaline-induced tachycardia

T2 sequence (P18090 whole entry): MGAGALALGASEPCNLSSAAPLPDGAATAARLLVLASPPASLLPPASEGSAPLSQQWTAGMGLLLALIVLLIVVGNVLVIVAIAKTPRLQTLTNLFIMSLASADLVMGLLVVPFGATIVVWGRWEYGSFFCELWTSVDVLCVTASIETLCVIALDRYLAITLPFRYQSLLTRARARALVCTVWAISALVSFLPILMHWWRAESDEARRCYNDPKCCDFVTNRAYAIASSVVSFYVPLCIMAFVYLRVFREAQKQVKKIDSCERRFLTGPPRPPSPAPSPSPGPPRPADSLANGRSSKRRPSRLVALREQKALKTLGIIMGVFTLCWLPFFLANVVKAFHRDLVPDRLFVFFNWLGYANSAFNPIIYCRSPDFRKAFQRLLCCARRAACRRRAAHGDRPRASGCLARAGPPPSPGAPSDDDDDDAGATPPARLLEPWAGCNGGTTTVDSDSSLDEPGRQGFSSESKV
T1 sequence (P10608 whole entry): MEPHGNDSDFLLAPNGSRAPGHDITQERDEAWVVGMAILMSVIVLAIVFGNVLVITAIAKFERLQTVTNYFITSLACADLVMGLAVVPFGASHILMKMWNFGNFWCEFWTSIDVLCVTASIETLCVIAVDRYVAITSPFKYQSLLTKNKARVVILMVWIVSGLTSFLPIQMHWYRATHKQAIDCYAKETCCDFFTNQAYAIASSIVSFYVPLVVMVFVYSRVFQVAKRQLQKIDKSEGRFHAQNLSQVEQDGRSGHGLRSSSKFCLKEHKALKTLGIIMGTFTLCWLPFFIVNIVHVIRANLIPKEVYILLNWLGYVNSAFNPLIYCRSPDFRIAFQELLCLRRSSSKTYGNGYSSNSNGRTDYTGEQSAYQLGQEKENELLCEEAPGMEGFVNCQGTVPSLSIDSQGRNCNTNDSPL

SMILES | ED50 [1, 3] [mg/kg] | ED50 [2, 4] [mg/kg] | ED50 [1] [mg/kg] | ED50 [2] [mg/kg]
CC(C)NCC(O)COc1ccc(OCCOCCc2ccccc2)cc1Cl (centres unmarked) [1-[2-chloro-4-[2-(phenethyloxy)ethoxy]phenoxy]-3-isopropylamino-2-propanolhydrochloride] | 0.834 | 0.025 |  | 
CC(C)NCC(O)COc1ccc(OCCOCCc2ccc(F)cc2)cc1 (centres unmarked) [1-[4-[2-(4-fluorophenethyloxy)-ethoxy]phenoxy]-3-isopropylamino-2-propanolhydrochloride] | > 2 | 0.003 |  | 
CC(C)NCC(O)COc1ccc(OCCOCCc2ccccc2)cc1.Cl (centres unmarked) [1-isopropylamino-3-[4-(2-phenethyloxyethoxy)phenoxy]-2-propanol hydrochloride] |  |  | > 2 | 0.015
CC(C)(C)NCC(O)COc1ccc(OCCOCCc2ccccc2)cc1.Cl (centres unmarked) [1-tert.butylamino-3-[4-(2-phenethyloxyethoxy)phenoxy]-2-propanol hydrochloride] |  |  | 0.979 | 0.018
